Experimental data reported in PubChem BioAssay AID179 (DTP/NCI, 2004).
Where “and” joins values, the source holds several entries; their conditions need not be identical. Identical values can stand only once. Calls of active or inactive are those of the source.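 The calls were made as follows: active = compounds giving half or more protection of infected cells from virus-caused growth loss, again on retest; inactive = the rest.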 Where a SMILES comes first, the peptide text is derived from it. Bridges are numbered along the chain shown (N, C = ends). Roman numbers before positions name the chains, in order.

Tested on: CEM cells HIV-1 protection, formazan growth assay
Assay: NCI AIDS Antiviral Assay
Details: for IC50: measured here: growth of uninfected CEM cells
How it was run: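 Category rules: moderately active means at least 50% protection on retest, and confirmed active means 100% protection reproducibly. The underlying data came from a formazan growth assay in HIV-1-infected CEM cells.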

SMILES | EC50 [µM] | IC50 | outcome
NCCCCC(NC(=O)OCc1ccccc1)C(=O)NCC(N)=O (stereo unspecified) (HELM PEPTIDE1{[O=C(OCc1ccccc1)[*:2]].[NCCCCC(N[*:1])C(=O)[*:2]].G.[am]}$$$$V2.0) | > 200 | > 200 µM | –
CCn1ncc(N=O)c1N | > 200 | > 200 µM | –
S=C1Cc2c(-c3ccc(Cl)cc3)cc(-c3ccccc3)nc2-c2ccccc2N1 | > 200 | 20.9 µM | –
CCOC(=O)c1cn(-c2ccccc2)c(=S)n2c1nc1ccccc12 | > 200 | 7.59 µM | –
CCOC(=O)NC(NCC(O)c1ccccc1)(C(F)(F)F)C(F)(F)F (stereo unspecified) | > 200 | 174 µM | –
NCCc1nc2ccccc2[nH]1 | > 200 | > 200 µM | –
C/C(=N\N=C(\N)OB(F)F)c1ccccn1 | > 200 | 141 µM | –
CCOC(=O)c1ccc(CS(=O)(=O)c2ccc(N)cc2)c([N+](=O)[O-])c1 | > 100 | > 100 µM | –
Cc1cc(O)ccc1C1(c2ccc(O)cc2C)OS(=O)(=O)c2ccccc21 | – | – | inactive
C[N+]1(CCO)C2CCC1CC(O)C2 (stereo unspecified) | > 200 | > 200 µM | –
CCOC(=O)N1CCN(C=S)CC1 | > 1230 | > 1230 µM | –
O=C1CSc2cc([N+](=O)[O-])ccc2N1 | > 123 | > 123 µM | –
CC1CCSC(N(C(=O)N(C)c2ccccc2)c2ccccc2)=N1 (stereo unspecified) | > 741 | 724 µM | –
S=C1C(=Nc2ccccc2)N(c2ccccc2)/C(=N\c2ccccn2)N1c1ccccc1 | > 200 | 6.31 µM | –
O=C(Nc1ccccc1)N1CCN(C(=O)Nc2ccccc2)C1=S | 195 | > 200 µM | –
Cc1ccc(Nc2[nH]c(=O)[nH]c(=O)c2C)cc1Cl | > 200 | 158 µM | –
COc1ccc(CCN(C)C2CCC(C#N)(c3ccc(OC)c(OC)c3)CC2)cc1OC (stereo unspecified) | > 145 | 74.1 µM | –
O=C(O)C1CCC(c2ccc(Oc3ccccc3)cc2)=N1 (stereo unspecified) | > 200 | > 200 µM | –
NS(=O)(=O)c1cc2c(cc1Cl)NCNS2(=O)=O | > 832 | 437 µM | –
OC1c2c(ccc3c2CCC3)CC12Cc1ccccc1C2 (stereo unspecified) | > 200 | 38 µM | –
O=C(c1nsc(Cl)c1Cl)N1CCCCC1 | > 200 | > 200 µM | –
CC(C)=C(OP1(=S)OCCN1C)C(C)(C)C(=O)N(C)C (stereo unspecified) | > 776 | 537 µM | –

SMILES | EC50 [µM] | IC50 | outcome
CC(=O)O[C@H]1CC[C@H]2[C@@H]3CCC4=C(C(=O)C=CC4(C)OC(C)=O)[C@H]3CC[C@]12C (stereo partly specified) | > 200 | 13.8 µM | –
N/N=C1/CCCc2nonc21 | > 200 | > 200 µM | –
OC12CCC3(OC4CCCCO4)c4ccccc4C3C1c1ccccc12 (stereo unspecified) | > 200 | 89.1 µM | –
CCCC1CC(=O)NC(=O)C1C(=O)OC(C)(C)C (stereo unspecified) | > 200 | > 200 µM | –
CNC(=S)N/N=C/c1cccc(C)n1 | > 200 | 19.5 µM | –
Nc1nc2c(c(-c3ccc(F)cc3)n1)COC/C2=C\c1ccc(F)cc1 | > 200 | 158 µM | –
COc1nc(N)nc2c1n(C)c[n+]2C | > 200 | 141 µM | –
N#CC(C(=O)CCCC(=O)Nc1ccccc1[N+](=O)[O-])c1c(Cl)cccc1Cl (stereo unspecified) | > 309 | > 309 µM | –
ON/N=C/c1cc2c(cc1Br)OCO2 | > 263 | 186 µM | –
COc1ccc(C2OCC3C2CO[C@H]3c2ccc(OC)c(OC)c2)cc1OC (mixture of isomers) | > 200 | 93.3 µM | –
Cc1ccc(Sc2ccc(C)cc2[N+](=O)[O-])c([N+](=O)[O-])c1 | > 97.7 | > 97.7 µM | –
O=C1CN(c2cccc(Cl)c2)C(=O)CN1CCN1CC(=O)N(c2cccc(Cl)c2)CC1=O | > 200 | > 200 µM | –
O=C1CN(c2ccc(Cl)cc2)C(=O)CN1CCN1CC(=O)N(c2ccc(Cl)cc2)CC1=O | > 200 | > 200 µM | –
CCOC(=O)N1C2C=C(C)C(C3C(C)C(=O)N31)N(C(=O)c1ccccc1)O2 (stereo unspecified) | > 355 | > 355 µM | –
COc1ccccc1NC(=O)c1nc2ccc([N+](=O)[O-])cc2nc1C | > 148 | > 148 µM | –
CC(C)[Si](OC1=CCC[C@H]2NC(=O)[C@@H](Cc3ccc([N+](=O)[O-])cc3)[C@@]12C)(C(C)C)C(C)C | > 200 | 20.4 µM | –
CCOP(=O)(CCCC(O)CNc1cc(Cl)nc(N)n1)OCC (stereo unspecified) | > 200 | > 200 µM | –
COc1ccc(NC(=S)Nc2cc(C)cc(C)n2)cc1 | > 200 | > 200 µM | –
CC(Oc1ccc2c(=O)cc(-c3ccccc3)oc2c1)C(=O)O (stereo unspecified) | – | – | inactive
Clc1cccc(C=NC23CC4CC(CC(C4)C2)C3)c1Cl | > 200 | 13.2 µM | –
C=C1C(=O)[C@@]23C(O)C[C@@H]4C(C)(C)CCCC4(COC(C)=O)[C@@H]2[C@@H](O)C[C@@H]1[C@H]3O (stereo partly specified) | > 631 | 1.95 µM and 1.02 µM | –
CN(CCO)c1cnn(CCO)c(=O)c1Cl | > 200 | > 200 µM | –

SMILES | EC50 [µM] | IC50 | outcome
N#CC(/C(=N/NC(=O)C(=O)NN)C(=O)NC12CC3CC(CC(C3)C1)C2)c1ccccc1 (stereo unspecified) | > 155 | > 155 µM | –
N#Cc1cccc(NC(=O)c2ccc(C(=O)O)c(C(=O)c3ccc(C(=O)O)c(C(=O)Nc4cccc(C#N)c4)c3)c2)c1 | > 170 | > 170 µM | –
COc1ccc(N=c2ssc3c(=S)ssc23)cc1 | – | – | inactive
NC(=O)NCCCC(NC(=O)OCCCCCn1ccc(=O)[nH]c1=O)C(=O)O (stereo unspecified) | > 100 | > 100 µM | –
c1ccc2c(c1)oc1ccc3nsnc3c12 | > 15.8 | > 15.8 µM | –
CCOC(=O)C1(C/C=C/CBr)CCc2ccccc2C1=O (stereo unspecified) | > 200 | 2.14 µM | –
COc1cc2c3c(c1)nnn3C(=O)C(c1ccccc1)S2 (stereo unspecified) | > 200 | > 200 µM | –
COc1ccc(C(CC(=O)c2cccs2)C(=O)c2ccc3c(c2)OCO3)cc1 (stereo unspecified) | > 200 | 102 µM | –
COc1ccc(NC(=O)/C(=N\NC(=O)C[n+]2ccccc2)c2c(O)c3ccc(O)cc3oc2=O)c([N+](=O)[O-])c1 | > 437 | 72.4 µM | –
CC(=O)OCC1OC(Nn2c(=O)[nH]c3ccccc3c2=O)C(OC(C)=O)C(OC(C)=O)C1OC(C)=O (stereo unspecified) | > 158 | 117 µM | –
O=P1(c2ccccc2)c2ccccc2CCc2ccccc21 | > 200 | 95.5 µM | –
CCc1n[nH]c(=O)n1CCCCCCCCCCCCn1c(CC)n[nH]c1=O | > 200 | 41.7 µM | –
CCOC(=O)c1[nH]c2c(cc(C(=O)C(F)(F)F)c3ccccc32)c1C(F)(F)F | > 17.8 | > 17.8 µM | –
O=Nc1c(O)ccc2ccccc12 | > 200 | 2.4 µM | –
CCC1C(NC(=O)OC)C(=O)N1[C@@H](C)c1ccccc1 (stereo partly specified) | > 200 | > 200 µM | –
Cc1ccc(S(=O)(=O)N(C)C)cc1NC1=NCCO1 | > 200 | > 200 µM | –
O=C1NC2NC(=O)NC2N1 (stereo unspecified) | > 479 | > 479 µM | –
Nc1ccc(N=Nc2ccc(-c3ccc(N=Nc4c(S(=O)(=O)O)cc5cc(S(=O)(=O)O)c(N=Nc6ccc([N+](=O)[O-])cc6)c(N)c5c4O)cc3)cc2)c2cc(S(=O)(=O)O)ccc12 | > 19.5 | > 19.5 µM | –
CC(C)(C)OC(=O)NNC(=O)C1Cc2ccccc2OC1=O (stereo unspecified) | > 200 | > 200 µM | –
Oc1ccc(Cl)cc1Cc1ccccc1 | > 200 | 39.8 µM | –
C[N+](C)(C)CC(=O)N/N=c1\cc(C(=O)Nc2ccc(N=O)cc2C#N)oc2cc(O)ccc12 | > 372 | > 372 µM | –
COC(=O)/C=C(/CNC(=O)OCc1ccccc1)c1ccccc1 | – | – | inactive

SMILES | EC50 [µM] | IC50 | outcome
Cc1[nH]c2ncnc(N)c2c1Cc1ccccc1 | > 200 | 2.63 µM | –
Cc1c(N=O)cc(C(C)C)c(O)c1I | > 200 | 27.5 µM | –
CC(=O)NNC(=S)/N=C/c1c(C)[nH]n(-c2ccccc2)c1=O | – | – | inactive
COc1ccc(/C=C2\CCC/C(=C\c3ccc(O)c(CN4CCCCC4)c3)C2=O)cc1 | > 200 | 3.16 µM | –
COc1ccc(C(=O)C(C(=O)CCC(=O)Nc2ccc(Cl)c(Cl)c2)c2ccc(OC)cc2)cc1 (stereo unspecified) | > 72.4 | > 72.4 µM | –
CCc1ccc(C2=C(O)C(=O)C(c3ccccc3)=C(O)C2=O)cc1 | > 87.1 | 44.7 µM | –
N#CC(C(=O)CCC(=O)C(C#N)c1ccccc1)c1ccccc1 (stereo unspecified) | > 398 | > 398 µM | –
O=C(Nc1ccc(/C=C/c2ccc(NC(=O)c3ccccc3O)cc2S(=O)(=O)O)c(S(=O)(=O)O)c1)c1ccccc1O | 115 | > 200 µM | –
NC(CSSCC(N)C(=O)NC(Cc1ccc(O)cc1)C(=O)O)C(=O)NC(Cc1ccc(O)cc1)C(=O)O (stereo not drawn) (I: H-Cys-Tyr-OH / II: H-Cys-Tyr-OH; disulfide I:1-II:1; configuration not given here) | > 200 | > 200 µM | –
COc1cnnc2c(C)c(-c3ccccc3)nn12 | > 200 | 46.8 µM | –
CCOP(=O)(OCC)C1C(CO)OC(n2ccc(=O)[nH]c2=O)C1O (stereo unspecified) | > 200 | 74.1 µM | –
N#Cc1c(N)sc(N)c1C#N | > 200 | 97.7 µM | –
CSCC(NP1(=O)SC(NN=C(C)C)=NC1(C)C)C(=O)O (stereo unspecified) | > 708 | > 708 µM | –
CC1=C(C)[C@]2(C)C(C)[C@]13Cn1c(=O)n(-c4ccccc4)c(=O)n1[C@@]32C (stereo partly specified) | > 77.6 | 51.3 µM | –
O=C(CC(=O)Nc1ccccc1Cl)NNC(Sc1ccccc1)c1cc(N=Nc2ccc(Br)cc2)ccc1O (stereo unspecified) | > 100 | 1.91 µM | –
CC(=O)/C(=C\n1c(=S)[nH]c2ccccc21)C(=O)Nc1ccccc1 | > 200 | > 200 µM | –
CC1=C(C(=O)Nc2cc(F)c(F)cc2F)C(c2cccc([N+](=O)[O-])c2)C(C(=O)Nc2ccccc2C(F)(F)F)=C(C)N1 (stereo unspecified) | > 43.7 | > 43.7 µM | –
Cc1ccc(CCCCCOc2ccc(C3=NCCO3)cc2)s1 | – | – | inactive
COc1ccc(NC(=O)CC/C(CC(=O)C(C)(C)C)=N\NC(=O)C(N)=O)cc1 | > 93.3 | > 93.3 µM | –
COC(=O)/C(=N\NC(N)=O)C(C(=O)C=C(C)C)C(=O)C(=O)Nc1ccc(Cl)c(Cl)c1 (stereo unspecified) | > 550 | 457 µM | –
